# “Also recorded” adds a separate entry of the source. Where two headings read alike, the source gives them in different places.
# Assays:
# [1] = test system: Fasciola hepatica Newly Excysted Juveniles (NEJs); assay: whole organism screen of Fasciola hepatica NEJs: microscopic scoring of phenotype and motility (viability)
# Protocol: The effect of test compounds in a whole organism screen of Fasciola hepatica Newly Excysted Juveniles (NEJs) was investigated along with DMSO (− control), triclabendazole (10 μM, + control) and media) and their anti-flukicidal activity was assessed at both 24 and 72 hours.
# (§1) The viability detection of Fasciola hepatica NEJs is based on qualitative microscopic evaluation of motility and phenotype and additionally measuring propidium iodide to make use of the differential uptake of fluorophores (such as propidium iodide) by living organisms.
# (§2) NEJs were prepared according to Edwards et al.. Approximately 12 NEJs/compound were cultivated. NEJ/compound co-cultures were placed at 37 °C in a humidified atmosphere containing 5% CO2. NEJ/compound co-cultures were incubated for a total of 72 hrs. At 24h, an assessment of the gross phenotype was made for all NEJ/compound co-cultures and bright field images were captured. At 72 h both phenotype and motility were quantified in comparison to live DMSO controls based on a microscopic scoring method detailed in [1] as well as summarised in Table 1 below.
# [2] = test system: common liver fluke (Fasciola hepatica); conditions: cited from earlier work; for effectiveness against liver fluke stages: mature flukes and immature stages (early immature 1 to 6 weeks old, immature 6 to 9 weeks old)
# [3] = test system: Fasciola hepatica Newly Excysted Juveniles (NEJs); assay: Propidium Iodide (PI) uptake by Fasciola hepatica NEJs in co-culture with compound
# Protocol: as §1, §2
# Propidium Iodide (PI) was then added to the NEJ/compound co-cultures (to a final concentration of […]) and these co-cultures were imaged under both Bright field and Texas Red settings.
# [4] = 72 h, in comparison to live DMSO controls, triclabendazole + control at 10 μM, concentration of test compounds not given
# [5] = overall conclusion from viability, phenotype/motility and PI
SMILES,"Score (mean) motility 1 to 5 (highest) [1, 4]","Score (mean) phenotype 1 to 6 (highest) [1, 4]",active against Fasciola hepatica NEJs during the viability assessment ([1]; after 24 hours),phenotype change and impaired motility significantly different to DMSO ([1]; after 72 hours),"significant activity against juvenile stages of Fasciola hepatica [1, 5]",effectiveness against liver fluke stages [2],also measured
"O=C(CNC(=O)c1ccc(C2=NOC(c3cc(Cl)cc(C(F)(F)F)c3)(C(F)(F)F)C2)c2ccccc12)NCC(F)(F)F (centres unmarked) [Compound 3, 4-[5-[3-chloro-5-(trifluoromethyl)phenyl]-4,5-dihydro-5-(trifluoromethyl)-3-isoxazolyl]-N-[2-oxo-2-[(2,2,2-trifluoroethyl)amino]ethyl]-1-naphthalene-carboxamide]",5.0,5.7,active,both a phenotype change and impaired motility significantly different to DMSO,significant activity,,
Cc1cc(C(C#N)c2ccc(Cl)cc2)c(Cl)cc1NC(=O)c1cc(I)cc(I)c1O (centres unmarked) [closantel],,,,,,only effective against the mature flukes and not against the immature stages,effectiveness against 3-8 weeks old flukes ([2]; 3-8 weeks old flukes): partially effective; effectiveness against mature flukes ([2]; mature flukes): fully effective
Cc1cc(C2=NO[C@@](c3cc(Cl)cc(Cl)c3)(C(F)(F)F)C2)ccc1C(=O)NCC(=O)NCC(F)(F)F [Compound 2],,,,,,,Score (mean) motility 1 to 5 (highest) [1]: 5.0; Score (mean) phenotype 1 to 6 (highest) [1]: 5.8; active against Fasciola hepatica NEJs during the viability assessment [1]: active; phenotype change and impaired motility significantly different to DMSO [1]: both a phenotype change and impaired motility significantly different to DMSO; significant activity against juvenile stages of Fasciola hepatica [1]: significant activity; Propidium Iodide positivity [3]: > 90%
"Cc1cc(C2=NOC(c3cc(Cl)cc(Cl)c3)(C(F)(F)F)C2)ccc1C(=O)NCC(=O)NCC(F)(F)F (centres unmarked) [Compound 1, 4-[5-(3,5-dichlorophenyl)-5-trifluoromethyl-4,5-dihydroisoxazol-3-yl]-2-methyl-N-[(2,2,2-trifluoro-ethylcarbamoyl)-methyl]-benzamide]",,,,,,,Score (mean) motility 1 to 5 (highest) [1]: 5.0; Score (mean) phenotype 1 to 6 (highest) [1]: 5.5; active against Fasciola hepatica NEJs during the viability assessment [1]: active; phenotype change and impaired motility significantly different to DMSO [1]: both a phenotype change and impaired motility significantly different to DMSO; significant activity against juvenile stages of Fasciola hepatica [1]: significant activity
N#Cc1cc(I)c(O)c([N+](=O)[O-])c1 [nitroxynil],,,,,,only effective against the mature flukes and not against the immature stages; also recorded: effective against fluke from 8 weeks post infection,
"Cn1nc(C(F)(F)C(F)(F)F)c(C(F)(F)F)c1-n1cc(-c2ccc(Cl)c(C(=O)NC3(C#N)CC3)c2)cn1 [Compound 10, 2-chloro-N-(1-cyanocyclopropyl)-5-[1-[2-methyl-5-(1,1,2,2,2-pentafluoroethyl)-4-(trifluoromethyl)pyrazol-3-yl]pyrazol-4-yl]benzamide]",4.8,3.8,active,both a phenotype change and impaired motility significantly different to DMSO,,,
C#CCNC(=O)CNC(=O)c1sc(C2=NO[C@@](c3cc(Cl)c(Cl)c(Cl)c3)(C(F)(F)F)C2)c2c1CCCC2 [Compound 7],4.8,5.7,active,both a phenotype change and impaired motility significantly different to DMSO,significant activity,,
Nc1cc(C(Cl)=C(Cl)Cl)c(S(N)(=O)=O)cc1S(N)(=O)=O [clorsulon],,,,,,effective only against mature flukes,
CSc1nc2cc(Cl)c(Oc3cccc(Cl)c3Cl)cc2[nH]1 [Triclabendazole],5.0,5.8,,,,effective against mature stages of the common liver fluke (Fasciola hepatica) as well as all immature stages,effectiveness against early immature liver fluke larvae ([2]; early immature larvae (1 to 6 weeks old)): effective against all early immature liver fluke larvae
"CS(=O)(=O)CC(=O)N1CC2(C1)OCc1cc(C3=NO[C@@](c4cc(Cl)c(F)c(Cl)c4)(C(F)(F)F)C3)ccc12 (stereo in doubt) [Compound 5, 1-(5′-(5-(3,5-dichloro-4-fluorophenyl)-5-(trifluoromethyl)-4,5-dihydroisoxazol-3-yl)-3′H-spiro[azetidine-3,1′-isobenzofuran]-1-yl)-2-(methylsulfonyl)ethan-1-one]",5.0,5.7,active,both a phenotype change and impaired motility significantly different to DMSO,significant activity,,
CCCSc1ccc2nc(NC(=O)OC)[nH]c2c1 [albendazole],,,,,,only effective against the mature flukes and not against the immature stages; also recorded: effective only against mature flukes,
O=C(Nc1cc(Cl)cc(Cl)c1O)c1c(O)c(Cl)cc(Cl)c1Cl [oxyclozanide],,,,,,only effective against the mature flukes and not against the immature stages; also recorded: effective only against mature flukes,
C#CCNC(=O)CNC(=O)c1sc(C2=NO[C@](c3cc(Cl)c(Cl)c(Cl)c3)(C(F)(F)F)C2)c2c1CCCC2 [Compound 8],5.0,5.7,active,both a phenotype change and impaired motility significantly different to DMSO,significant activity,,
C#CCNC(=O)CNC(=O)c1sc(C2=NO[C@@](c3cc(Cl)c(Cl)c(Cl)c3)(C(F)(F)F)C2)cc1C [Compound 6],5.0,5.6,active,both a phenotype change and impaired motility significantly different to DMSO,significant activity,,
Cc1cc(C2=NSC(c3cc(Cl)cc(Cl)c3)(C(F)(F)F)C2)ccc1C(=O)NCC(=O)NCC(F)(F)F (centres unmarked) [Compound 9],5.0,5.7,active,both a phenotype change and impaired motility significantly different to DMSO,significant activity,,
"Cc1cc(C2=NO[C@@](c3cc(Cl)c(Cl)c(Cl)c3)(C(F)(F)F)C2)sc1C(=O)NCC(=O)NCC(F)(F)F (stereo in doubt) [Compound 4, 3-methyl-N-(2-oxo-2-((2,2,2-trifluoroethyl)amino)ethyl)-5-[5-(3,4,5-trichlorophenyl)-5-(trifluoromethyl)-4,5-dihydroisoxazol-3-yl]thiophene-2-carboxamide]",,,,,,,Score (mean) motility 1 to 5 (highest) [1]: 5.0; Score (mean) phenotype 1 to 6 (highest) [1]: 5.7; active against Fasciola hepatica NEJs during the viability assessment [1]: active; phenotype change and impaired motility significantly different to DMSO [1]: both a phenotype change and impaired motility significantly different to DMSO; significant activity against juvenile stages of Fasciola hepatica [1]: significant activity; Propidium Iodide positivity [3]: > 90%
